Experimental data from ChEMBL document CHEMBL4251635, “Identification and development of benzoxazole derivatives as novel bacterial glutamate racemase inhibitors” (Eur J Med Chem, 2018).
Values after ≈ are worked out from the molar mass of the structure shown.

Assays:
RAW264.7 = assay: Cytotoxicity against mouse RAW264.7 cells assessed as reduction in cell viability at 25 uM after 48 hrs by MTT assay relative to control; format: cell-based; settings: raw264.7, 48 h
[1] = tested on: Mycobacterium tuberculosis; assay: Antimycobacterial activity against replicating Mycobacterium tuberculosis H37Rv incubated for 1 week by MABA method; format: functional; settings: 168 h
[2] = tested on: Mycobacterium tuberculosis; assay: Antimycobacterial activity against replicating Mycobacterium tuberculosis H37Rv incubated for 1 week in presence of verapamil by MABA method; format: functional; settings: 168 h
[3] = tested on: Mycobacterium tuberculosis; assay: Antibiofilm activity against Mycobacterium tuberculosis H37Rv assessed as log reduction in bacterial load at 10 ug/ml incubated for 1 week by MPN assay; format: functional
[4] = tested on: Mycobacterium tuberculosis; assay: Antimycobacterial activity against Mycobacterium tuberculosis H37Rv dormant stage assessed as log reduction in bacterial load at 10 ug/ml incubated for 7 days; format: functional
[5] = tested on: Mycobacterium tuberculosis; assay: Antimycobacterial activity against replicating Mycobacterium tuberculosis H37Rv incubated for 1 week in presence of piperine by MABA method; format: functional; settings: 168 h
Mycobacterium marinum [6] = assay: Antimycobacterial activity against Mycobacterium marinum ATCC BAA-535 infected in zebrafish at 5 mg/kg, po treated for 7 days by MPN assay; format: functional
[7] = tested on: Mycobacterium tuberculosis; assay: Bactericidal activity against Mycobacterium tuberculosis H37Rv dormant stage up to 21 days by time kill assay; format: functional; settings: 504 h
[8] = tested on: Mycobacterium tuberculosis; assay: Ratio of MIC for Mycobacterium tuberculosis H37Rv to MIC for Mycobacterium tuberculosis H37Rv in presence of verapamil; format: functional
[9] = tested on: Mycobacterium tuberculosis; assay: Bactericidal activity against Mycobacterium tuberculosis H37Rv dormant stage at 5 to 20 uM by time kill assay; format: functional, organism-based; settings: TDE = time-dependent effect
[10] = target: T1, Glutamate racemase (Mycobacterium tuberculosis (strain ATCC 25618 / H37Rv)) (UniProt P9WPW9); assay: Stabilization of Mycobacterium tuberculosis glutamate racemase assessed as melting temperature by sypro-orange dye-based fluorescence assay (reference value: 43.7 degreeC)
T1 sequence (whole entry): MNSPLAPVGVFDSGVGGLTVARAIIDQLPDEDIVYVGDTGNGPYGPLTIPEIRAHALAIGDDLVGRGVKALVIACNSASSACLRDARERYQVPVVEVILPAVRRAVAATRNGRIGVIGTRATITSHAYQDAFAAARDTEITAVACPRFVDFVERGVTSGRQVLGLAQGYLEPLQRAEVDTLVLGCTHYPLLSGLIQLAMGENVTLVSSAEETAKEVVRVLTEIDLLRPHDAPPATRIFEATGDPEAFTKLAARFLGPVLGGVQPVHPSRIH

[11] = target: T1, Glutamate racemase (Mycobacterium tuberculosis (strain ATCC 25618 / H37Rv)); assay: Stabilization of Mycobacterium tuberculosis glutamate racemase bound to D-glutamate assessed as melting temperature by sypro-orange dye-based fluorescence assay (reference value: 45.1 degreeC)
Mycobacterium marinum [12] = assay: Antimycobacterial activity against Mycobacterium marinum ATCC BAA-535 infected in zebrafish at 10 mg/kg, po treated for 7 days by MPN assay; format: functional
[13] = target: T1, Glutamate racemase (Mycobacterium tuberculosis (strain ATCC 25618 / H37Rv)); assay: Stabilization of Mycobacterium tuberculosis glutamate racemase bound to D-glutamate assessed as change in melting temperature by sypro-orange dye-based fluorescence assay
[14] = target: T1, Glutamate racemase (Mycobacterium tuberculosis (strain ATCC 25618 / H37Rv)); assay: Stabilization of Mycobacterium tuberculosis glutamate racemase assessed as change in melting temperature by sypro-orange dye-based fluorescence assay

Compound | Activity (RAW264.7) | MIC [1] | MIC [2] | MIC [5] | also measured
O=C(Nc1ccccc1)Nc1cccc(-c2nc3ccccc3o2)c1 | 48.38% | 75.1 µM (≈ 24.7 µg/mL) | – | – | –
S=C(Nc1ccc(Cl)cc1)Nc1cccc(-c2nc3ccccc3o2)c1 | 22.81% | 63.9 µM (≈ 24.3 µg/mL) | – | – | –
NNC(=O)c1ccncc1 [ISONIAZID] | – | 0.78 µM (≈ 0.107 µg/mL) | 0.78 µM | 0.78 µM | log(activity) [3]: 1.2; log(activity) [4]: 1.4; log(activity) (Mycobacterium marinum [6]): 2.5
COc1ccc(NC(=O)Nc2cccc(-c3nc4ccccc4o3)c2)cc1 | 17.26% | 69.3 µM (≈ 24.9 µg/mL) | 69.3 µM | 69.3 µM | –
O=C(Nc1ccc(F)cc1)Nc1cccc(-c2nc3ccccc3o2)c1 | 2.98% | 72.1 µM (≈ 25.1 µg/mL) | 72.1 µM | 72.1 µM | –
Cc1ccc2oc(-c3cccc(NC(=S)NCc4ccccc4)c3)nc2c1 | 38.91% | 2.05 µM (≈ 0.766 µg/mL) | – | – | –
CO[C@H]1/C=C/O[C@@]2(C)Oc3c(C)c(O)c4c(O)c(c(/C=N/N5CCN(C)CC5)c(O)c4c3C2=O)NC(=O)/C(C)=C\C=C\[C@H](C)[C@H](O)[C@@H](C)[C@@H](O)[C@@H](C)[C@H](OC(C)=O)[C@@H]1C [RIFAMPIN] | – | 0.21 µM (≈ 0.173 µg/mL) | 0.21 µM | 0.21 µM | log(activity) [3]: 1.5; log(activity) [4]: 0.8
Cc1ccc(NC(=S)Nc2cccc(-c3nc4cc(C)ccc4o3)c2)cc1 | 2.12% | 77 µM (≈ 28.8 µg/mL) | 77 µM | 77 µM | –
Cc1ccc2oc(-c3cccc(NC(=O)Nc4ccccc4)c3)nc2c1 | 10.15% | 72.9 µM (≈ 25 µg/mL) | 72.9 µM | 72.9 µM | –
Cc1ccc2oc(-c3cccc(NC(=O)Nc4ccc(F)cc4)c3)nc2c1 | 3.17% | 69.3 µM (≈ 25.1 µg/mL) | – | – | –
O=C(NCc1ccccc1)Nc1cccc(-c2nc3ccccc3o2)c1 | 2.12% | 72.8 µM (≈ 25 µg/mL) | – | – | –
Fc1ccc(NC(=S)Nc2cccc(-c3nc4ccccc4o3)c2)cc1 | 96.02% | 4.37 µM (≈ 1.59 µg/mL) | – | – | MBC [7]: 27.5 µM (≈ 9.98 µg/mL); log(activity) [3]: 0.4; log(activity) [4]: 0.2
CC[C@@H](CO)NCCN[C@@H](CC)CO [ETHAMBUTOL] | – | 7.89 µM (≈ 1.61 µg/mL) | 3.82 µM | 3.82 µM | –
COc1ccc(NC(=O)Nc2cccc(-c3nc4cc(C)ccc4o3)c2)cc1 | 11.09% | 67.9 µM (≈ 25.4 µg/mL) | – | – | –
COc1c(N2C[C@@H]3CCCN[C@@H]3C2)c(F)cc2c(=O)c(C(=O)O)cn(C3CC3)c12 [MOXIFLOXACIN] | – | – | – | – | log(activity) [3]: 2; log(activity) [4]: 0.3; log(activity) (Mycobacterium marinum [6]): 2.4
Cc1ccc2oc(-c3cccc(NC(=S)Nc4ccc(F)cc4)c3)nc2c1 | 81.92% | 2.16 µM (≈ 0.815 µg/mL) | – | – | log(activity) [3]: 0.8; log(activity) [4]: 2.5
CC(C)c1ccc(NC(=O)Nc2cccc(-c3nc4ccccc4o3)c2)cc1 | 3.52% | 81.2 µM (≈ 30.2 µg/mL) | – | – | –
Cc1ccc2oc(-c3cccc(NC(=S)Nc4ccccc4)c3)nc2c1 | 87.32% | 69.6 µM (≈ 25 µg/mL) | 8.69 µM | 8.69 µM | –
Cc1ccc2oc(-c3cccc(NC(=S)Nc4ccc(Cl)cc4)c3)nc2c1 | 55.82% | 8.72 µM (≈ 3.43 µg/mL) | 2.01 µM | 2.01 µM | MBC [7]: 25.4 µM (≈ 10 µg/mL); log(activity) [3]: 2.4; log(activity) [4]: 2.5; Ratio [8]: 4; Activity [9]: Tde; Tm [10]: 49.8 °C; Tm [11]: 51.9 °C; log(activity) (Mycobacterium marinum [12]): 3.4
Cc1ccc2oc(-c3cccc(NC(=S)Nc4ccc([N+](=O)[O-])cc4)c3)nc2c1 | 98.1% | 61.9 µM (≈ 25 µg/mL) | 1.91 µM | 1.91 µM | –
O=C(Nc1ccc([N+](=O)[O-])cc1)Nc1cccc(-c2nc3ccccc3o2)c1 | 95.11% | 67 µM (≈ 25.1 µg/mL) | – | – | –
Cc1ccc(NC(=S)Nc2cccc(-c3nc4ccccc4o3)c2)cc1 | 99.14% | 69.5 µM (≈ 25 µg/mL) | – | – | –
S=C(NCc1ccccc1)Nc1cccc(-c2nc3ccccc3o2)c1 | 47.21% | 69.2 µM (≈ 24.9 µg/mL) | 2.21 µM | 2.21 µM | –
S=C(Nc1ccccc1)Nc1cccc(-c2nc3ccccc3o2)c1 | 96.23% | 19.3 µM (≈ 6.67 µg/mL) | – | – | –
O=C(Nc1ccc(Cl)cc1)Nc1cccc(-c2nc3ccccc3o2)c1 | 38.91% | 68.3 µM (≈ 24.9 µg/mL) | – | – | –
Cc1ccc2oc(-c3cccc(NC(=O)NCc4ccccc4)c3)nc2c1 | – | – | – | – | ΔTm [13]: 2 °C; ΔTm [14]: 3.2 °C
Cc1ccc(NC(=O)Nc2cccc(-c3nc4ccccc4o3)c2)cc1 | 1.09% | 36.2 µM (≈ 12.4 µg/mL) | 36.2 µM | 36.2 µM | –
O=[N+]([O-])c1ccc(NC(=S)Nc2cccc(-c3nc4ccccc4o3)c2)cc1 | 88.12% | 2.09 µM (≈ 0.816 µg/mL) | – | – | log(activity) [3]: 0.8; log(activity) [4]: 2.5
Cc1ccc2oc(-c3cccc(NC(=O)Nc4ccc(Cl)cc4)c3)nc2c1 | 1.09% | 66.3 µM (≈ 25.1 µg/mL) | – | – | –
